Values of other authors in patent publication US5994297A, “Therapy for Staphylococcus aureus” (Eli Lilly and Company, priority 1998, dated 1999).

Tested on: Staphylococcus aureus strain "Mu50"
Settings: Staphylococcus aureus strain Mu50 (MRSA, reduced glycopeptide sensitivity); Hiramatsu et al., J. of Antimicrobial Chemotherapy, 1997, 40, 135-146

CN[C@H](CC(C)C)C(=O)N[C@H]1C(=O)N[C@@H](CC(N)=O)C(=O)N[C@H]2C(=O)N[C@H]3C(=O)N[C@H](C(=O)N[C@H](C(=O)O)c4cc(O)cc(O)c4-c4cc3ccc4O)[C@H](O)c3ccc(c(Cl)c3)Oc3cc2cc(c3O[C@@H]2O[C@H](CO)[C@@H](O)[C@H](O)[C@H]2O[C@H]2C[C@](C)(N)[C@H](O)[C@H](C)O2)Oc2ccc(cc2Cl)[C@H]1O [vancomycin]
vancomycin MIC: 8 µg/mL
